What all share (type): biochemical
The target in experiment [1] is T1, spASADH (Streptococcus pneumoniae, UniProt Q8DQ00).
T1 sequence (Q8DQ00 1-358): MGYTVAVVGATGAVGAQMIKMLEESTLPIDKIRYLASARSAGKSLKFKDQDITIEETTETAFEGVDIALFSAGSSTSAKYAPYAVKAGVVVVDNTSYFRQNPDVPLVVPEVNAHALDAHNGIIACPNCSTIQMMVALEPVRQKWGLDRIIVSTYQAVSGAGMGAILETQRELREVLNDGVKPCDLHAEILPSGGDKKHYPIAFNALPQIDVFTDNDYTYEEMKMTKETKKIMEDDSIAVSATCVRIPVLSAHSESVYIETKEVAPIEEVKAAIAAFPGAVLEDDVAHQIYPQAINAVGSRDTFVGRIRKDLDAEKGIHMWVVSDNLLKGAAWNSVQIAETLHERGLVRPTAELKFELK

For experiment [2], the system named is spASADH. Particulars: ratio of Ki vcASADH / spASADH.
Experiment [3] addresses vcASADH (Vibrio cholerae, UniProt Q9KQG2). The experiment in a line: ASADH kinetic assay.

Sequence of vcASADH (Q9KQG2 whole entry): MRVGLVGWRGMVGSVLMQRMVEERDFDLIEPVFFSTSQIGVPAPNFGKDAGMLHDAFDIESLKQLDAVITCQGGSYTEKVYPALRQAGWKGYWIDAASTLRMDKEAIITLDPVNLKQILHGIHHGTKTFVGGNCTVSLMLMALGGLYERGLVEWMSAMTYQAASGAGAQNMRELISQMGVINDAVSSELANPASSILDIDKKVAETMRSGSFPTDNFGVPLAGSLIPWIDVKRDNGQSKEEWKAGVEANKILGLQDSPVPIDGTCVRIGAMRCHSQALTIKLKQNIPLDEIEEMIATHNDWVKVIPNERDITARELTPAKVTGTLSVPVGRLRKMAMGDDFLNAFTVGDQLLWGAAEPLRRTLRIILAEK

`O=C([O-])CN(Cc1ccc(C(=O)[O-])c(C(=O)[O-])c1)c1ccc(-c2ccccc2)cc1.[Na+].[Na+].[Na+]` [compound 17, N-(4-biphenyl)-N-carboxymethyl-3,4-dicarboxybenzylamine]: in experiment [1] (relative to parent benzyl derivative (13)), the “improved inhibition of spASADH relative to the parent benzyl derivative” value is given as 25 fold.

With `CC(C)(C)c1ccc(CN(CC(=O)[O-])Cc2ccc(C(=O)[O-])c(C(=O)[O-])c2)cc1.[Na+].[Na+].[Na+]` [compound 33, N-(4-t-butylbenzyl)-N-carboxymethyl-3,4-dicarboxybenzylamine], the “selectivity for spASADH relative to vcASADH” value in experiment [2] is on record as “over 40 fold”.

`NC(=O)c1ccc(CN(CC(=O)[O-])Cc2ccc(C(=O)[O-])c(C(=O)[O-])c2)cc1.[Na+].[Na+].[Na+]` [compound 32, N-(4-carboxamidebenzyl)-N-carboxymethyl-3,4-dicarboxybenzylamine] registered a loss of affinity in experiment [1] (carboxamide (32) relative to p-carboxylbenzyl derivative (31)) of 3 fold.

On to `O=C([O-])CCNCc1ccc(C(=O)[O-])c(C(=O)[O-])c1.[Na+].[Na+].[Na+]` [compound 4, N-carboxyethyl-3,4-dicarboxybenzylamine], for which the “inhibition of vcASADH (in words)” value in experiment [3] is “did not show appreciable inhibition”.

For the compound `CN(CC(=O)[O-])Cc1cccc(C(=O)[O-])c1C(=O)[O-].[Na+].[Na+].[Na+]` [compound 9, N-methyl, N-carboxymethyl-2,3-dicarboxybenzylamine], the “inhibition of vcASADH (in words)” value in experiment [3] was “no inhibition”.

Source of the values: article PMC4601562 (Bioorganic & medicinal chemistry, 2015).
